Reference: US20070141619A1, “DRUG RESISTANCE-ASSOCIATED GENE AND USE THEREOF” (BANYU PHARMACEUTICAL CO., Ltd., priority 2000, published 2007)

What was measured:
[1] = system: PC-13/Vector; test: SRB drug sensitivity, PC-13 transfected with vector alone; assay type: cell-based; conditions: Homo sapiens, average ± standard error of three independent experiments
Description: (§1) Test cells in the logarithmic growth phase were dispensed into wells of 96-well plate at 1×10^3 cells/well. After subculture for 24 hours in a CO2 incubator, a serial diluted agent was added to each well. After further incubation for 72 hours, the cells were fixed with trichloroacetic acid (TCA) and the proteins in the cells were stained by 0.4% sulforhodamine B solution. The samples were eluted by 10 mM Tris-HCl for 1 hour, and each well was measured at 560 nm with a 450 nm reference, by a SPECTRAmax 250 plate reader (Molecular Devices Corp.).
(§2) PC-13 cells were transfected with the ABCG2 expression plasmids using Effectene Transfection Reagent (QIAGEN). The experiment was performed according to the attached procedural manual. As a control experiment, other PC-13 cells were transfected with vector alone without the ABCG2 sequence. The two experiments were conducted simultaneously. Two days after the transfection, the original media were replaced with selection media containing 0.2 mg/ml of Geneticin (GIBCO BRL). By culture for a long time under this condition, stable transfectant clones with the introduced plasmids were selected. Two weeks from the transfection, emerging colonies were picked and expression of ABCG2 in the cells was examined by Northern Blot analysis.

[2] = system: PC13; test: SRB drug sensitivity, PC-13 parental cells; assay type: cell-based; conditions: Homo sapiens, 72 hours with agent
[3] = system: LY/NR2; test: SRB drug sensitivity, Compound-A-resistant LY/NR2; assay type: cell-based, mouse; conditions: for RR: Relative Resistance: IC50 LY/NR2 divided by IC50 LY; for IC50: Mus musculus, LY/NR2, SRB, 72 hours with agent
Source text: An emerging colony was isolated as described above and designated as LY/NR2.

[4] = system: PC13/NR13; test: SRB drug sensitivity, Compound-A-resistant PC-13/NR13; assay type: cell-based, human; conditions: for IC50: Homo sapiens, PC-13, PC13/NR13, SRB, 72 hours with agent; for RR: Relative Resistance: IC50 PC13/NR13 divided by IC50 PC13
[5] = system: PC-13 cell lines with introduced ABCG2; test: SRB drug sensitivity, PC-13 cell lines with introduced ABCG2 (stated jointly); assay type: cell-based, human; conditions: PC-13 cell lines with introduced ABCG2, versus vector alone
Description: as §1, §2

[6] = system: HeLa#7; test: SRB drug sensitivity, spontaneously resistant HeLa#7; assay type: cell-based, human; conditions: for IC50: Homo sapiens, HeLa#7, SRB, 72 hours with agent; for RR: Relative Resistance: IC50 HeLa#7 divided by IC50 HeLaS3
[7] = system: LY/NR1; test: SRB drug sensitivity, Compound-A-resistant LY/NR1; assay type: cell-based, mouse; conditions: for RR: Relative Resistance: IC50 LY/NR1 divided by IC50 LY; for IC50: Mus musculus, LY/NR1, SRB, 72 hours with agent
Source text: A colony that grew under these conditions was isolated using a cloning ring (Asahi Techno Glass Corporation) and designated as LY/NR1.

[8] = system: ABCG2; test: SRB drug sensitivity, PC-13 transfected with ABCG2 (clone 3); assay type: cell-based, human; conditions: human; PC-13/ABCG2-3; average ± standard error of three independent experiments
Description: as §1, §2

[9] = system: PC-13/ABCG2-3; test: as above; assay type: cell-based, human; conditions: IC50 PC-13/ABCG2-3 divided by IC50 of vector cells
Description: as §1, §2

[10] = system: ABCG2; test: SRB drug sensitivity, PC-13 transfected with ABCG2 (clone 2); assay type: cell-based, human; conditions: human; PC-13/ABCG2-2; average ± standard error of three independent experiments
Description: as §1, §2

[11] = system: PC-13/ABCG2-2; test: as above; assay type: cell-based, human; conditions: IC50 PC-13/ABCG2-2 divided by IC50 of vector cells
Description: as §1, §2

[12] = system: HCT116/NR1; test: SRB drug sensitivity, Compound-A-resistant HCT116/NR1; assay type: cell-based, human; conditions: for IC50: Homo sapiens, HCT-116, HCT116/NR1, SRB, 72 hours with agent; for RR: Relative Resistance: IC50 HCT116/NR1 divided by IC50 HCT116
Source text: An emerging colony was isolated and designated as HCT116/NR1.

[13] = system: HeLaS3; test: SRB drug sensitivity, HeLaS3 (Compound-A-sensitive); assay type: cell-based; conditions: Homo sapiens, HeLa S3, 72 hours with agent
[14] = system: HCT116; test: SRB drug sensitivity, HCT116 parental cells; assay type: cell-based; conditions: Homo sapiens, HCT-116, 72 hours with agent
[15] = system: LY; test: SRB drug sensitivity, LY parental fibroblasts; assay type: cell-based; conditions: Mus musculus, Fibroblast, 72 hours with agent
[16] = system: MCF-7/R7; test: SRB drug sensitivity, MCF-7 with introduced ABCG2 of the present invention; assay type: cell-based, human; conditions: MCF-7/R7 (ABCG2 of the present invention), FIG. 6
Description: (§3) The full length human ABCG2 cDNA of the present invention prepared in Example 5 was inserted into a plasmid for expression in mammalian cells, followed by transfection of human breast cancer cells, MCF-7 cells, with the ABCG2 expression plasmid using Effectene Transfection Reagent (QIAGEN). Likewise, human breast cancer cells, MCF-7 cells, were transfected with a plasmid including the ABCG2-482T cDNA prepared in Example 10. The experiments were carried out according to an attached procedural manual. As a control experiment, the MCF-7 cells were also transfected with vector alone. The three experiments were conducted simultaneously. Two days from the transfection, the original media were replaced with selective media containing 900 μg/ml of Geneticin (GIBCO BRL). By culture over a prolonged term under this condition, stable transfectant clones with introduced plasmid were selected. Two to three weeks from the transfection, emerging colonies were picked and the expression of ABCG2 in the cells was examined by Northern Blot analysis. Northern Blot analysis was performed as described in Example 4: 8 μg of total RNA prepared from each clone using RNeasy mini kit (QIAGEN) was separated on a formaldehyde denatured agarose gel, followed by analysis using the human ABCG2 cDNA fragment of the present invention as a probe.
(§4) The drug sensitivity of the stable transfectant clones which were established from MCF-7 cells with introduced ABCG2- or ABCG2-482T-expression plasmid, was measured using SRB method as described in Example 2 and the sensitivity of each transfectant to drugs was shown as a relative resistance to the cells with introduced vector alone (FIG. 6).

[17] = system: MCF-7/T8; test: SRB drug sensitivity, MCF-7 with introduced ABCG2-482T; assay type: cell-based, human; conditions: MCF-7/T8 (ABCG2-482T)
Description: as §3, §4

| SMILES | IC50 [1] | IC50 [2] | RR: Relative Resistance [3] | IC50 [3] | IC50 [4] | RR: Relative Resistance [4] | resistance of cells in which ABCG2 was forcedly expressed [5] | IC50 [6] | RR: Relative Resistance [6] | RR: Relative Resistance [7] | IC50 [7] | IC50 at 72 h [8] | IC50 at 72 h [10] | IC50 [12] | RR: Relative Resistance [12] | IC50 [13] | IC50 [14] | IC50 [15] | other results |
| --- | --- | --- | --- | --- | --- | --- | --- | --- | --- | --- | --- | --- | --- | --- | --- | --- | --- | --- | --- |
| CC[C@@]1(O)C(=O)OCc2c1cc1n(c2=O)Cc2cc3ccccc3nc2-1 [Camptothecin] | 43 ± 11 nM | 38 nM | 8.2 | 380 nM | 29 nM | 0.76 | did not display remarkable resistance | 38 nM | 2.7 | 1.3 | 58 nM | 52 ± 8 nM | 29 ± 5 nM | 17 nM | 1.8 | 14 nM | 9.4 nM | 46 nM | Rel. Res. (relative resistance) [9]: 1.2; Rel. Res. (relative resistance) [11]: 0.67 |
| COc1cccc2c1C(=O)c1c(O)c3c(c(O)c1C2=O)C[C@@](O)(C(C)=O)C[C@@H]3O[C@H]1C[C@H](N)[C@H](O)[C@H](C)O1 [Daunorubicin] | – | – | – | – | – | – | – | – | – | – | – | – | – | – | – | – | – | – | relative resistance to the cells with introduced vector alone [16]: no resistance; relative resistance to the cells with introduced vector alone ([17]; FIG. 6): 5.1 fold |
| COc1cccc2c1C(=O)c1c(O)c3c(c(O)c1C2=O)C[C@@](O)(C(=O)CO)C[C@@H]3O[C@H]1C[C@H](N)[C@H](O)[C@H](C)O1 [Doxorubicin] | – | 28 nM | 4.5 | 190 nM | 70 nM | 2.5 | not resistant | 29 nM | 0.81 | 1.6 | 67 nM | – | – | 59 nM | 2.3 | 35 nM | 25 nM | 43 nM | relative resistance to the cells with introduced vector alone [16]: no resistance; relative resistance to the cells with introduced vector alone ([17]; FIG. 6, listed as Adriamycin): 9.6 fold; relative resistance to the cells with introduced vector alone ([17]; FIG. 6, listed as adriamycin): showed resistance |
| COc1cc([C@@H]2c3cc4c(cc3[C@@H](O[C@@H]3O[C@@H]5CO[C@@H](C)O[C@H]5[C@H](O)[C@H]3O)[C@H]3COC(=O)[C@H]23)OCO4)cc(OC)c1O [Etoposide] | 1000 ± 290 nM | 1200 nM | 4.7 | 2000 nM | 3000 nM | 2.5 | did not display remarkable resistance | 930 nM | 0.79 | 2.1 | 520 nM | 1100 ± 330 nM | 460 ± 75 nM | 3400 nM | 3.1 | 1200 nM | 1100 nM | 280 nM | Rel. Res. (relative resistance) [9]: 1.1; Rel. Res. (relative resistance) [11]: 0.46 |
| CC(=O)O[C@H]1C(=O)[C@@]2(C)[C@H]([C@H](OC(=O)c3ccccc3)[C@]3(O)C[C@H](OC(=O)[C@H](O)[C@@H](NC(=O)c4ccccc4)c4ccccc4)C(C)=C1C3(C)C)[C@]1(OC(C)=O)CO[C@@H]1C[C@@H]2O [Paclitaxel] | – | 2 nM | 2.0 | 81 nM | 1.8 nM | 0.92 | – | 4.2 nM | 4.2 | 1.4 | 57 nM | – | – | 2.1 nM | 1.9 | 1 nM | 1.1 nM | 41 nM | – |
| CC[C@@]1(O)C(=O)OCc2c1cc1n(c2=O)Cc2cc3c(CN(C)C)c(O)ccc3nc2-1 [Topotecan] | 210 ± 40 nM | 75 nM | – | 2900 nM | 1100 nM | – | did not display remarkable resistance | 360 nM | – | – | 250 nM | 96 ± 22 nM | 190 ± 50 nM | – | – | 63 nM | 34 nM | 69 nM | – |
| CC[C@]1(O)C[C@H]2CN(CCc3c([nH]c4ccccc34)[C@@](C(=O)OC)(c3cc4c(cc3OC)N(C=O)[C@H]3[C@@](O)(C(=O)OC)[C@H](OC(C)=O)[C@]5(CC)C=CCN6CC[C@]43[C@@H]65)C2)C1 [Vincristine] | – | 13 nM | 1.7 | 25 nM | 7 nM | 0.56 | – | 6.9 nM | 9.9 | 0.77 | 11 nM | – | – | 9.3 nM | 4.7 | 0.7 nM | 2 nM | 15 nM | – |
